The conditions of assay [1]: relative to cyclosporin; cited from earlier work.
The test system of assay [2] is cell surface CD1d on Raji and Daudi cells. Description: Cell surface expression of CD1d after competing peptide treatment (flow cytometry). As to conditions: 50 microMolar, both cell lines. The class given is cell-based, human. The procedure: (§1) The ability of synthetic peptides to compete with binding of CLIP peptides and result in the cell surface expression of CD1d was determined.
(§2) Results: The results shown in FIG. 5 are expressed in histogram analyses. The Y axis represents cell number of the 5000 live cells versus the X axis which is a reflection of relative Fitc fluorescence versus Streptavidin-PE (eBioscience, Cat. #12-4317) that will bind with high affinity to cell-bound biotinylated peptides. The distance between the histogram from the isotype control staining versus the histogram reflecting the specific stain and is a measure of level of cell surface CD1d.
(§3) Cell Culture Conditions: The Raji and Daudi cell lines were purchased from American Type Culture Collection, were thawed, and grown in RPMI 1640 medium supplemented with standard supplements, including 10% fetal calf serum, gentamycin, penicillin, streptomycin, sodium pyruvate, HEPES buffer, 1-glutamine, and 2-ME.
(§4) Protocol: Cells were plated into a 12 well plate with 3 mls total volume containing approximately 1.5×10^6/well for Daudi cells and 3.0×10^6/well for Raji cells. Treatment groups included no treatment as control and biotinylated […] […]
(§5) Harvested cells were stained using standard staining procedure that called for a 1:100 dilution of PE anti-CD1d. […] Samples were acquired and analyzed on a Coulter Excel Flow Cytometer.

The subject of assay [3] is human B cell lines, Raji and Daudi. In words: Binding of biotinylated synthetic peptide to B cell lines (Streptavidin-PE flow cytometry). The assay is classed as cell-based. Particulars: 50 microMolar. The procedure: as §1, §2, §3, §4, §5
On the technique in general: In flow cytometry, cells or beads pass a laser one at a time.

Assay [4] relates to cell surface CLIP on Raji or Daudi cells. In words: MKN1 (bioCLIP) effect on cell surface CLIP levels (flow cytometry). The class given is cell-based, human. Particulars: 24 and 48 hours. The procedure: (§6) The ability of MKN1 (bioCLIP) to alter cell surface CLIP and CD74 levels was determined using Raji or Daudi cells.
(§7) Data were analyzed by histogram with Y axis represents cell number of the 5000 live cells versus the X axis which is a reflection of relative FITC fluorescence with either antibodies to CLIP or CD74. The distance between the histogram from the isotype control staining versus the histogram reflecting the specific stain and is a measure of level of cell surface CLIP or CD74 when staining a population of live Raji or Daudi cells.
as §3
(§8) Protocol: Cells were plated into a 12 well plate with 3 mls total volume containing approximately 0.5×10^6/mL for Daudi cells and 0.5×10^6/mL for Raji cells. […]
(§9) Harvested cells were stained using standard staining procedure that called for a 1:100 dilution of Fitc-anti-human CLIP or CD74 antibody (Fitc, Pharmingen, Cat #554647) or isotype control. […] Samples were acquired and analyzed on a Coulter Excel Flow Cytometer.

Assay [5] has as its system cell surface CD74 on Raji or Daudi cells. Description: MKN1 (bioCLIP) effect on cell surface CD74 levels (flow cytometry). Particulars: 24 and 48 hours. The class given is cell-based, human. The procedure: as §6, §7, §3, §8, §9

No end group written: not given here. *: point of attachment. Biotin = O=C1N[C@H]2[C@H](CS[C@H]2CCCCC(=O)*)N1

Turning to `C=CC[C@@H]1/C=C(\C)C[C@H](C)C[C@H](OC)[C@H]2O[C@@](O)(C(=O)C(=O)N3CCCC[C@H]3C(=O)O[C@H](/C(C)=C/[C@@H]3CC[C@@H](O)[C@H](OC)C3)[C@H](C)[C@@H](O)CC1=O)[C@H](C)C[C@@H]2OC` [FK506, tacrolimus], the “immunosuppressive activity greater than cyclosporin” value in assay [1] is 10-100 times.

With “Biotinylated FRIMAVLAS: biotinylated synthetic peptide FRIMAVLAS (SEQ ID NO. 2), also referred to as MKN 5 (also: biotinylated)”, the “cell surface expression of CD1d” value is on record as “marginally” in assay [2] (4 hours) and “slightly more” in assay [2] (24 hours). Also, the “binding of biotinylated peptide to the cell lines” value in assay [3] (4 hours, Raji and Daudi) was “bound with high affinity”; in assay [3] (24 hours), “Less binding”.

Consider “MKN1: 19 mer, Biotin at N-Terminal = Biotinylated CLIP; SGG GSK MRM ATP LLM QAL Y (SEQ ID NO. 5) (Biotin-SGGGSKMRMATPLLMQALY)”, for which the “cell surface CLIP levels” value in assay [4] was “alters”. In assay [5], the “cell surface CD74 levels” value was “alters”.

The values are drawn from patent US8557764B2, “Methods of modulating immune function” (The Regents of the University of Colorado, a body corporate, priority 2007, dated 2013).
